From article PMC9403545, “Structure based design of effective HtpG-derived vaccine antigens against M. tuberculosis” (Frontiers in Molecular Biosciences, 2022) come the findings set out here.

The target of the assay is T1, HtpGMtb (Mycobacterium tuberculosis, UniProt P9WMJ7).
T1 construct: gene htpG; full-length wild type, recombinant in E. coli BL21(DE3), Ni-NTA and SEC, further ion exchange to remove nucleic acid; homodimer
Briefly: biochemical. In kind it is binding.

T1 sequence (P9WMJ7 whole entry): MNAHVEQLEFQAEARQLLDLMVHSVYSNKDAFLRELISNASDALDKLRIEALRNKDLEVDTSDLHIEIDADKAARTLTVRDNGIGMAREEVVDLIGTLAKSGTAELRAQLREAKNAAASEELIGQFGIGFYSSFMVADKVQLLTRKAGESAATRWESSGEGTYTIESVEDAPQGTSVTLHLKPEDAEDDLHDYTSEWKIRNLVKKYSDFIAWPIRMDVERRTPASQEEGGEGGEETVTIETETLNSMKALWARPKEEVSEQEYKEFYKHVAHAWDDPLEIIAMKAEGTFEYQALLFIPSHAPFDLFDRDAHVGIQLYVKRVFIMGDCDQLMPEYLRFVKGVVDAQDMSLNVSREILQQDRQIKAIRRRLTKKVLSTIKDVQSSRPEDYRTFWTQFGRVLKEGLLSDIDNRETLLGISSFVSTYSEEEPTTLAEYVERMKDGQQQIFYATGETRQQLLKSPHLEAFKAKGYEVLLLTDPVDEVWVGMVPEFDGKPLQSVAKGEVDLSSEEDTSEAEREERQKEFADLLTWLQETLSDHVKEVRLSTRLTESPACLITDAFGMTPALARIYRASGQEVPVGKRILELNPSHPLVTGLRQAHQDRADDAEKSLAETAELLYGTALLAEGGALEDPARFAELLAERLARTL

The Kd is the free concentration of one partner at which half of the binding sites on the other are occupied at equilibrium, for simple one-to-one binding. A lower Kd goes with higher affinity. In turn, `Nc1ncnc2c1ncn2[C@@H]1O[C@H](COP(=O)(O)OP(=O)(O)O)[C@@H](O)[C@H]1O` [ADP] yielded a dissociation constant Kd of 34 µM. This counts as double-digit micromolar.

In the case of `Nc1ncnc2c1ncn2[C@@H]1O[C@H](COP(=O)(O)OP(=O)(O)NP(=O)(O)O)[C@@H](O)[C@H]1O` [AMP-PNP], the Kd was determined as 45.4 µM. This Kd and that of the molecule before are within 1.5-fold of each other.
